Measurements taken from doi:10.1101/2023.09.25.559386v1 (biorxiv, 2023).

How the values were obtained:
D1R [1] = target: T1, D1R (Homo sapiens, UniProt P21728); experiment: radioligand competition binding, cell homogenates
D1R [2] = target: T1, D1R; experiment: BRET Gs heterotrimer dissociation; assay type: cell-based

T1 sequence (P21728 whole entry): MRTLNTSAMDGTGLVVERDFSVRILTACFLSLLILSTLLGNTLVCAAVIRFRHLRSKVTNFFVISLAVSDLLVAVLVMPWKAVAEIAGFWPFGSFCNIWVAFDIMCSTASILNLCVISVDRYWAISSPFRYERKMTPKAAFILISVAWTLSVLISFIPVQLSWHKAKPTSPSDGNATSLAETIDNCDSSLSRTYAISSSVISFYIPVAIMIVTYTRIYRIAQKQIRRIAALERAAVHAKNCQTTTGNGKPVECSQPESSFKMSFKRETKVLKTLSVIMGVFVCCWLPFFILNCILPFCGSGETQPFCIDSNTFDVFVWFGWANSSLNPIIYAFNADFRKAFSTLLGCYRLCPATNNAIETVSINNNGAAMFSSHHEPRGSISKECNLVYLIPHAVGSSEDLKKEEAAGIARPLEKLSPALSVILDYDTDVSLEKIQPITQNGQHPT

| Structure (SMILES) | pKi (D1R [1]; […] [3H]SCH-23390, […] min, room temperature) | Ki (D1R [1]) [nM] | Kb (D1R [2]) [nM] |
| --- | --- | --- | --- |
| COCC[N+]1=C(/C=C/C=C2N(CCCCCC(=O)NCCOCCOCCn3cc(CNC(=O)CCCCS(=O)(=O)Nc4ccc(C5CN(C)CCc6cc(Cl)c(O)cc65)cc4)nn3)c3ccc(S(=O)(=O)[O-])cc3C2(C)CCCS(=O)(=O)O)C(C)(CCCS(=O)(=O)O)c2cc(S(=O)(=O)O)ccc21 (stereo not shown) [compound 28, 2-((E)-3-((E)-1-(6-((2-(2-(2-(4-((5-(N-(4-(7-Chloro-8-hydroxy-3-methyl-2,3,4,5-tetrahydro-1H-benzo[d]azepin-1-yl)phenyl)sulfamoyl)pentanamido)methyl)-1H-1,2,3-triazol-1-yl)ethoxy)ethoxy)ethyl)amino)-6-oxohexyl)-3-methyl-5-sulfonato-3-(3-sulfonatopropyl)indolin-2-ylidene)prop-1-en-1-yl)-1-(2-methoxyethyl)-3-methyl-3-(3-sulfonatopropyl)-3H-indol-1-ium-5-sulfonate] | 6.85 ± 0.07 |  |  |
| COCC[N+]1=C(/C=C/C=C2N(CCCCCC(=O)NCCOCCn3cc(CNC(=O)CCCCS(=O)(=O)Nc4ccc(C5CN(C)CCc6cc(Cl)c(O)cc65)cc4)nn3)c3ccc(S(=O)(=O)[O-])cc3C2(C)CCCS(=O)(=O)O)C(C)(CCCS(=O)(=O)O)c2cc(S(=O)(=O)O)ccc21 (stereo not shown) [compound 26, 2-((E)-3-((E)-1-(6-((2-(2-(4-((5-(N-(4-(7-Chloro-8-hydroxy-3-methyl-2,3,4,5-tetrahydro-1H-benzo[d]azepin-1-yl)phenyl)sulfamoyl)pentanamido)methyl)-1H-1,2,3-triazol-1-yl)ethoxy)ethyl)amino)-6-oxohexyl)-3-methyl-5-sulfonato-3-(3-sulfonatopropyl)indolin-2-ylidene)prop-1-en-1-yl)-1-(2-methoxyethyl)-3-methyl-3-(3-sulfonatopropyl)-3H-indol-1-ium-5-sulfonate] |  | 288 |  |
| COCC[N+]1=C(/C=C/C=C2N(CCCCCC(=O)NCCCS(=O)(=O)Nc3ccc(C4CN(C)CCc5cc(Cl)c(O)cc54)cc3)c3ccc(S(=O)(=O)[O-])cc3C2(C)CCCS(=O)(=O)O)C(C)(CCCS(=O)(=O)O)c2cc(S(=O)(=O)O)ccc21 (stereo not shown) [compound 24, (E)-1-(6-((3-(N-(4-(7-Chloro-8-hydroxy-3-methyl-2,3,4,5-tetrahydro-1H-benzo[d]azepin-1-yl)phenyl)sulfamoyl)propyl)amino)-6-oxohexyl)-2-((E)-3-(1-(2-methoxyethyl)-3-methyl-5-sulfo-3-(3-sulfopropyl)-3H-indol-1-ium-2-yl)allylidene)-3-methyl-3-(3-sulfopropyl)indoline-5-sulfonate] |  | 10.2 |  |
| CN1CCc2cc(Cl)c(O)cc2C(c2ccc(NS(=O)(=O)CCCNC(=O)c3ccc(-c4c5ccc(N(C)C)cc5[o+]c5cc(N(C)C)ccc45)c(C(=O)[O-])c3)cc2)C1 (racemic) [compound 23, 5-((3-(N-(4-(7-Chloro-8-hydroxy-3-methyl-2,3,4,5-tetrahydro-1H-benzo[d]azepin-1-yl)phenyl)sulfamoyl)propyl)carbamoyl)-2-(6-(dimethylamino)-3-(dimethyliminio)-3H-xanthen-9-yl)benzoate] |  | 398 |  |

Results, then the molecule that gave them:

| pKi (D1R [1]; […] [3H]SCH-23390, […] min, room temperature) | Ki (D1R [1]) [nM] | Kb (D1R [2]) [nM] | Structure (SMILES) |
| --- | --- | --- | --- |
|  | 4.57 | 51.3 | CN1CCc2cc(Cl)c(O)cc2C(c2ccc(NS(=O)(=O)CCCCC(=O)NCc3cn(CCOCCNC(=O)c4ccc(-c5c6ccc(N(C)C)cc6[o+]c6cc(N(C)C)ccc56)c(C(=O)[O-])c4)nn3)cc2)C1 (racemic) [compound 25, 2-(3,6-Bis(dimethylamino)xanthylium-9-yl)-5-((2-(2-(4-((5-(N-(4-(7-chloro-8-hydroxy-3-methyl-2,3,4,5-tetrahydro-1H-benzo[d]azepin-1-yl)phenyl)sulfamoyl)pentanamido)methyl)-1H-1,2,3-triazol-1-yl)ethoxy)ethyl)carbamoyl)benzoate] |
|  | 9.55 |  | CN1CCc2cc(Cl)c(O)cc2C(c2ccc(NS(=O)(=O)CCCCC(=O)NCc3cn(CCOCCOCCNC(=O)c4ccc(-c5c6ccc(N(C)C)cc6[o+]c6cc(N(C)C)ccc56)c(C(=O)[O-])c4)nn3)cc2)C1 (racemic) [compound 27, 2-(3,6-Bis(dimethylamino)xanthylium-9-yl)-5-((2-(2-(2-(4-((5-(N-(4-(7-chloro-8-hydroxy-3-methyl-2,3,4,5-tetrahydro-1H-benzo[d]azepin-1-yl)phenyl)sulfamoyl)pentanamido)methyl)-1H-1,2,3-triazol-1-yl)ethoxy)ethoxy)ethyl)carbamoyl)benzoate] |
